Measurements from patent US8962263B2, “Methods and compositions for detecting the activation state of multiple proteins in single cells” (The Board of Trustees of the Leland Stanford Junior …, priority 2001, dated 2015).

How the values were obtained:
PDK-1 = PDK-1 immunoprecipitation kinase assay from ICAM-2 cells; format: biochemical; conditions: compounds 10 μM, 1 hr
Excerpt: A) ICAM-2, interacts with α-actinin and ezrin. ICAM-2, ICAM2-ΔC or control cells were immunoprecipiated for ICAM-2, and immunoblotted for either a-actinin or ezrin. Control lysates were not subjected to immunoprecipitation and reflect positive controls for detected interacting protein. […] ICAM-2, and control cells were serum starved (48, hrs), treated with LY294002, (10, μM, 24, hrs), or cultured in growth media, and prepared for intracellular detection of phosphatidyinositol 3,4,5, triphosphate detection by flow cytometry. […] Phosphotransfer of ATP to peptide substrate was detected by scintillation counting and presented as counts per minute CPM. […]
PDK-1 activity was determined by a PDK-1 immunoprecipiation kinase assay kit (Upstate Biotecnology, Lake Placid, N.Y.) as recommended by manufacturer. In brief, PDK-1 was immunoprecipitated from 1×10^6 treated cells, incubated with inactivated SGK enzyme, and detection of (γ-^32P) ATP incorporation to a SGK peptide substrate was measured by scintillation counting. PI3K activity was detected by developed PI3K FACS based assay (see below). AKT activity was detected by immunoprecipitation of AKT1 from cells and used in a kinase assay with GSK3 fusion protein (CST). […] Kinase reaction was terminated with SDS sample buffer boiled for 5 min, and phosphorylation state of GS3K was detected by immunoblotting and visualized using ECL detection (Amersham). […]

ezrin = assay: phosphotyrosine-protein based elisa for ezrin tyrosine phosphorylation upon ICAM-2 ligation; format: cell-based, human; conditions: Jurkat cells
Experimental: A) Expression levels of ICAM-2, vary across cell lines of different origins. Quantitative flow cytometry analysis was performed to assess the number of ICAM-2 surface molecules across transformed and untransformed fibroblasts, lymphocytes of T-cell and different B-cell differentiation states and myeloid lineages (see Material and Methods for elaboration). The number of surface molecules/cell is expressed as the mean (bar)+/−SD of triplicate experiments. B) Crosslinking of endogenous ICAM-2, induces ezrin tyrosine phosphorylation and enhanced ICAM-2, interaction. Jurkat cells were crosslinked for ICAM-2 using monoclonal antibody for the indicated times and subjected to immunoprecipitation/immunoblotting as indicated. C) Inhibition of ezrin phosphotyrosine by chemical inhibitors of src and Rho-dependent kinases. D) Ezrin phosphorylation and enhanced interaction with the p85, subunit of PI3K as a function of ICAM-2. Determined as described above. E) PDK-1, activity as a function of ICAM-2, ligation, as described above). F) PI3K and AKT localize to the membrane as a function of ICAM-2, ligation. Membrane/cytosolic fractionation was performed on ICAM-2, ligated Jurkat cells as a function of time and subjected to immunoblotting for PI3K and AKT.
In order to identify upstream kineses capable of tyrosine phosphorylating ezrin as a function of ICAM-2 ligation, we developed a phosphotyrosine-protein based elisa to screen for the inhibition of ezrin tyrosine phosphorylation in vivo by various known inhibitors of protein kineses (Perez and Nolan, manuscript in preparation). […] Given the design of the screen to detect tyrosine residue phosphorylation, we speculate that activation of Rho-dependent processes may be a prerequisite for ezrin to be tyrosine phosphorylated by src (elaborated below).

Jurkat T cells = assay: anti-Fas induced apoptosis in ICAM-2 crosslinked Jurkat cells, annexin-V binding assay; format: cell-based, human; conditions: inhibitor 10 μM 1 hour, anti-Fas 50 ng/ml 8 hours
Experimental: A) ICAM-2, crosslinking induced AKT activity in Jurkat T cells and subsequent phosphorylation of GSK3, FKHR, and AFX as a function of time. Serum starved Jurkat T cells were incubated with either isotype control or anti-human ICAM-2, (10, μg/ml) for the indicated times. AKT kinase activity was determined as described. Immunoblot analysis verified AKT dual phosphorylation, FKHR and GSK3 phosphorylation, and BAD phosphorylation as a function of ICAM-2, crosslinking. B) ICAM-2 crosslinking induces AKT activity in BaF3, pre-B cells. […] ICAM-2, was crosslinked on 106, Jurkat T cells using an ICAM-2, mAb (10, μg/ml) 30, minutes prior to treatment with staurosporine (+) or DMSO vehicle (−). Apoptosis was determined by flow cytometry using annexin-V binding assay. […] Cells were assessed for apoptosis by annexin-V binding assay. […]
Apoptosis was determined either by counting pyknotic nuclei, annexin-V binding by flow cytometry, or TUNEL BrdU staining by flow cytometry as indicated. Apoptosis was induced either by staurosporine (1 μm), treatment with anti-mouse Fas (5 μq/ml Santa Cruz Biotechnology (SCB), anti-human Fas ([…]) as indicated in appropriate experiment, IL-3 withdrawal-(24 hrs) or as indicated. For pyknolic nuclei count, NIH3T3 cells were grown on glass coverslips and assayed for apoptosis. Suspension cells were analyzed by nuclear staining with 25 μM acridine orange/25 μm ethidium bromide or 5 μg/ml Hoechst 33342 (Molecular Probes, Eugene, Oreg.). Apoptosis was identified by the presence of characteristic pyknotic nuclei as described (Jacobson and Raff, 1995). At least 5 individual fields were photographed and counted using a Zeiss axioscope fluorescence microscope. […] The cells were trypsinized and viable cells counted following trypan blue staining. Untreated cells were counted at the time of treatment. % survival represents (number of viable cells post-treatment)/(number of viable cells pretreatment). […] Flow cytometry analysis was performed on a BD FACSCalibur machine with CELLQuest and analyzed using FlowJo software (Tree Star).

CD19+ human B cells = conditions: 10 μM, 30 minutes
Experimental: Apoptosis was measured by annexin-V binding detected by flow cytometry, and gated for CD19+, cells. […] Apoptosis was measured by annexin-V binding assay.
Antibody cross-linking experiments were performed using mAbs to anti-ICAM-1, anti-ICAM-2, anti-ICAM-3, anti-CD43, or anti-CD44 that recognizes the N-terminal region (extracellular domain) at 10 μg/ml. Spin dialysis (Biorad) was used for buffer exchange of azide containing antibodies (0.01%) to phosphate buffered saline buffer pH 7.4. Anti-mouse IgG (Sigma) was used as a control antibody in cross-linking experiments. 1×10^6 Jurkat, 1×10^6 BaF3, or 1×10^7 PBMC cells were serum starved for 4 hours respectively (except PBMC). Cells were incubated with either mAb (10 μg/ml) or mouse IgG (10 μg/ml) at 37° C. for the indicated time. Time points began post serum starvation to attenuate most of the signaling pathways or as indicated. […] Cells extracts were taken and subjected to either immunoprecipitation or immunoblotting were appropriate. Primary cells were subjected to apoptotic treatment followed by preparation for flow cytometry. GTPγS was made cell permeant by pre-incubating compound with Fugene (Roche Biochemicals) in a 1:4 molar ratio for 30 minutes at 25° C. prior to being applied to cells.

## C[C@@H](N)[C@H]1CC[C@H](C(=O)Nc2ccncc2)CC1 [Y-27632]
PDK-1
  PDK-1 activity in ICAM-2 cells: partially inhibited
ezrin
  tyrosine phosphorylation of ezrin: inhibit the tyrosine phosphorylation of ezrin
ezrin; listed as Y-27362
  tyrosine phosphorylation of ezrin: abolished tyrosine phosphorylation of ezrin
Jurkat T cells
  ICAM-2 crosslinking protection against Fas induced apoptosis: abrogated
CD19+ human B cells
  ICAM-2 anti-apoptotic effect in CD19+ human B cells: abrogated
